How the values were obtained:
Assay type in all cases: in vivo, Solanum tuberosum
[1] = test system: Desiree potatoes (tubers); assay: Example 1: plant emergence and plant growth from treated tubers planted in greenhouse; conditions: 200 μL then 1000 μL in 9.2 L desiccator, 56 hour treatment, harvest 21 days after planting
Experimental: Methods: […] potatoes were produced in research plots at the Edmonton Research Station, University of Alberta in 1999. The tubers were harvested in September, washed, transported to Washington State University and placed in 4° C. storage in late October. Tubers, selected for uniform size, were taken from the storage area for the experiment in June. The 9-month-old tubers were fully emerged from dormancy after this prolonged storage interval; however, no sprout growth had occurred at the low storage temperature. The tubers were washed, air-dried, and evenly divided between two 9.2 liter (L) glass desiccators (8 tubers per desiccator). Trans-2-hexenal (200 μL) was pipetted into a 50 milliliter (mL) beaker that was placed inside one of the desiccators. The other desiccator served as control. Both desiccators were closed and the tubers were incubated in the two atmospheres for 32 hours. The desiccators were then opened, an additional 1000 μL of trans-2-hexenal was added to the beaker, and the desiccators were closed for an additional 24 hours. One tuber from each chamber was sampled for trans-2-hexenal content at the end of the 56 hour treatment interval. […] Time to plant emergence was recorded and plants were harvested 21 days after planting. Plants were separated into various components (e.g., stems, leaves) at harvest and the effects of trans-2-hexenal on plant morphology were assessed.

Umatilla seed-tubers = assay: Example 2: etiolated sprout development and tuber quality, Umatilla; conditions: 4.7 mmol/kg potato tubers, 25 days
Experimental: (§1) Methods: Ten-month-old Ranger Russet, Umatilla and Russet Burbank seed-tubers were taken from 4° C. storage and treated with trans-2-hexenal in 9.2-L glass desiccators as described in Example 1. The tubers were exposed to trans-2-hexenal for 0, 12 and 24 hours at 23° C. at a concentration of 4.7 mmol/kg potato tubers. Regardless of exposure time, all tubers remained enclosed in the chambers for the entire 24 hour period. This was accomplished by introducing the trans-2-hexenal at zero-time (into the 24 hour treatment desiccator) and after 12 hour incubation (into the 12 hour treatment desiccator) through a septum in the top of the closed desiccator. The treated tubers were planted into moistened peat/perlite/soil potting mix and placed in the dark at 24° C. to stimulate sprouting. The experiment was set up in a randomized complete block design (5 replicates) with treatments (3 cultivars×3 exposure times) arranged factorially. Effects of trans-2-hexenal exposure and cultivar on etiolated sprout development and tuber quality were assessed 25 days after removal from the 4° C. storage.

[2] = test system: Ranger Russet seed-tubers; assay: Example 2: etiolated sprout development and tuber quality, Ranger Russet; conditions: 4.7 mmol/kg potato tubers, 25 days
Experimental: as §1

[3] = test system: Russet Burbank seed-tubers; assay: Example 2: etiolated sprout development, tuber quality and soluble carbohydrates, Russet Burbank; conditions: 4.7 mmol/kg potato tubers, 25 days
Experimental: as §1

[4] = test system: Russet Burbank seed-tubers; assay: Example 3: potato tuber respiration (CO2 in outflow, infra-red gas analyzer); conditions: 0.96 mmol/kg
Experimental: Methods: Eleven-month-old Russet Burbank seed-tubers were taken from a 4° C. storage area and treated with 250 μL of trans-2-hexenal in a 9.2 liter (L) glass desiccator (0.96 mmol/kg potato tubers) for 12 hours at 23° C. The trans-2-hexenal was pipetted onto Whatman #1 filter paper in a glass petri dish (5.5 cm diameter) inside the desiccator. Control tubers were enclosed in a desiccator without trans-2-hexenal. Following treatment, the tubers were enclosed in 1 L […] chambers (3 tubers per chamber) that were placed at 15° C. A continuous airflow (approximately 80 mL/min; 21% O2, 79% N2) was established around the tubers through inlet and outlet ports in the lid of each chamber. Respiration rates were determined at four hour intervals over a 28 day storage period by quantifying CO2 in the outflow from each chamber with a LI-COR model 6262 infra-red gas analyzer (LI-COR Inc., Lincoln Nebr.). The experiment was set up in a randomized complete block design (5 replicates) with two treatments (control and trans-2-hexenal-treated). The effect of trans-2-hexenal exposure on the development of etiolated sprouts was assessed 28 days after removal from the 4° C. storage.

[5] = test system: Russet Burbank seed tubers; assay: Example 4: sprout inhibition by aldehyde vapors, 26 days of sprouting; conditions: for Average Sprout Length / External Pit Rating (1-4 scale) / Sprout Fresh Weight: 12 hours vapor, 26 days at 18° C.
Experimental: Methods: Eleven-month-old Russet Burbank seed tubers were taken from a 4° C. storage area and exposed to trans-2-hexenal (0.6-4.3 mmol/kg), trans-2-heptenal (0.6-3.8 mmol/kg) and trans-2-octenal (0.5-2.5 mmol/kg) vapors separately in 3.9 L glass containers for 12 hours at 23° C. The aldehydes were applied to filter paper inside petri dishes within each jar. Control tubers were enclosed in a glass container without any aldehyde. Sprouts were ‘peeping’ (approximately 3 mm in length) at the time of treatment. Following treatment, tubers were placed at 18° C. (95% relative humidity) in the dark to sprout for 26 days. The experiment was set up in a randomized complete block design (5 replicates) with chemicals and concentrations arranged factorially. Effects of the aliphatic aldehydes on the development of etiolated sprouts were documented at 20 days (photographically) and 26 days of sprouting.

CCC/C=C/C=O [trans-2-hexenal]
sprouting, plant emergence and plant growth from potato tubers (in words) [1]: clearly inhibited sprouting
Average Sprout Length (Umatilla seed-tubers; 12 h exposure): 0 cm/tuber
External Pit Rating (1-4 scale) (Umatilla seed-tubers; 12 h exposure): 3.7
Soft Rot Lesions (Umatilla seed-tubers; 12 h exposure): 2.2 no/tuber
Sprout Fresh Weight (Umatilla seed-tubers; 12 h exposure): 0 g/tuber
Average Sprout Length (Umatilla seed-tubers; 24 h exposure): 0 cm/tuber
External Pit Rating (1-4 scale) (Umatilla seed-tubers; 24 h exposure): 4.0
Soft Rot Lesions (Umatilla seed-tubers; 24 h exposure): 2.6 no/tuber
Sprout Fresh Weight (Umatilla seed-tubers; 24 h exposure): 0 g/tuber
Average Sprout Length ([2]; 12 h exposure): 0 cm/tuber
External Pit Rating (1-4 scale) ([2]; 12 h exposure): 3.1
Soft Rot Lesions ([2]; 12 h exposure): 1.0 no/tuber
Sprout Fresh Weight ([2]; 12 h exposure): 0 g/tuber
Average Sprout Length ([2]; 24 h exposure): 0 cm/tuber
External Pit Rating (1-4 scale) ([2]; 24 h exposure): 3.7
Soft Rot Lesions ([2]; 24 h exposure): 1.2 no/tuber
Sprout Fresh Weight ([2]; 24 h exposure): 0 g/tuber
Average Sprout Length ([3]; 12 h exposure): 0 cm/tuber
External Pit Rating (1-4 scale) ([3]; 12 h exposure): 1.8
Soft Rot Lesions ([3]; 12 h exposure): 0.6 no/tuber
Soluble Carbohydrates Fru ([3]; 12 h exposure): 19.5 mg/g dry wt.
Soluble Carbohydrates Glu ([3]; 12 h exposure): 19.0 mg/g dry wt.
Soluble Carbohydrates Glu + Fru ([3]; 12 h exposure): 38.5 mg/g dry wt.
Soluble Carbohydrates Suc ([3]; 12 h exposure): 6.30 mg/g dry wt.
Sprout Fresh Weight ([3]; 12 h exposure): 0 g/tuber
Average Sprout Length ([3]; 24 h exposure): 0 cm/tuber
External Pit Rating (1-4 scale) ([3]; 24 h exposure): 2.2
Soft Rot Lesions ([3]; 24 h exposure): 0.4 no/tuber
Soluble Carbohydrates Fru ([3]; 24 h exposure): 17.8 mg/g dry wt.
Soluble Carbohydrates Glu ([3]; 24 h exposure): 16.5 mg/g dry wt.
Soluble Carbohydrates Glu + Fru ([3]; 24 h exposure): 34.3 mg/g dry wt.
Soluble Carbohydrates Suc ([3]; 24 h exposure): 6.28 mg/g dry wt.
Sprout Fresh Weight ([3]; 24 h exposure): 0 g/tuber
time after treatment at which respiration reached a level equal to the untreated tubers ([4]; 12 hours, storage at 15° C.): ≤ 32 h
respiration lower than control tubers ([4]; by the end of the study (27 day storage at 15° C.)): 2.5 fold
respiration rate greater than untreated tubers ([4]; immediately following the 12 hour treatment period): 38%
Average Sprout Length ([5]; 0.63 mmol/kg): 0.2 cm/tuber
External Pit Rating (1-4 scale) ([5]; 0.63 mmol/kg): 1.4
Sprout Fresh Weight ([5]; 0.63 mmol/kg): 0.04 g/tuber
Average Sprout Length ([5]; 1.33 mmol/kg): 0 cm/tuber
External Pit Rating (1-4 scale) ([5]; 1.33 mmol/kg): 2.0
Sprout Fresh Weight ([5]; 1.33 mmol/kg): 0 g/tuber
Average Sprout Length ([5]; 2.06 mmol/kg): 0 cm/tuber
External Pit Rating (1-4 scale) ([5]; 2.06 mmol/kg): 2.6
Sprout Fresh Weight ([5]; 2.06 mmol/kg): 0 g/tuber
Average Sprout Length ([5]; 2.50 mmol/kg): 0 cm/tuber
External Pit Rating (1-4 scale) ([5]; 2.50 mmol/kg): 3.5
Sprout Fresh Weight ([5]; 2.50 mmol/kg): 0 g/tuber
Average Sprout Length ([5]; 4.34 mmol/kg): 0 cm/tuber
External Pit Rating (1-4 scale) ([5]; 4.34 mmol/kg): 2.8
Sprout Fresh Weight ([5]; 4.34 mmol/kg): 0 g/tuber
external pitting (in words) ([5]; lowest concentration): minimal

Reference: US6855669B2, “Use of α,β unsaturated aliphatic aldehydes and ketones to inhibit potato tuber sprouting” (Washington State University Research Foundation, priority 2000, dated 2005)
